Laboratory results: the supplement of paper PMC10307832

Experiments:
Assay in all cases: relative viability (nuclei count vs DMSO), 5 days (fraction); higher = more cells survive
Apatinib + Crizotinib = compound: N#CC1(c2ccc(NC(=O)c3cccnc3NCc3ccncc3)cc2)CCCC1 [Apatinib] + C[C@@H](Oc1cc(-c2cnn(C3CCNCC3)c2)cnc1N)c1c(Cl)ccc(F)c1Cl [Crizotinib] (partner 1 µM)
Summary of the method: (§1)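 After 5 days of treatment, lung cancer cells in 1536-well plates were fixed and stained in a single step (final 0.05% Triton X-100, 1% formaldehyde, 1 ug/ml Hoechst) and their nuclei counted on 4× images. Treatment had been applied by pin tool the day after seeding as one drug alone or as a fixed anchor-drug dose with five library-drug doses (not always all listed) in √10 steps. Relative viability is the nuclei count of treated wells divided by that of vehicle wells, and values are medians of duplicate plates.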

Metformin + AZD7762 = compound: CN(C)C(=N)NC(=N)N [Metformin] + NC(=O)Nc1cc(-c2cccc(F)c2)sc1C(=O)N[C@H]1CCCNC1 [AZD7762] (partner 0.2 µM)
Summary of the method: as §1

Apatinib + Decitabine = compound: N#CC1(c2ccc(NC(=O)c3cccnc3NCc3ccncc3)cc2)CCCC1 [Apatinib] + Nc1ncn([C@H]2C[C@H](O)[C@@H](CO)O2)c(=O)n1 [Decitabine] (partner 2 µM)
Summary of the method: as §1

Metformin + Palbociclib = compound: CN(C)C(=N)NC(=N)N [Metformin] + CC(=O)c1c(C)c2cnc(Nc3ccc(N4CCNCC4)cn3)nc2n(C2CCCC2)c1=O [Palbociclib] (partner 0.5 µM)
Summary of the method: as §1

NCI-H2170
relative viability (Apatinib + Crizotinib; first compound 0.08 µM): 1.23 | relative viability (Apatinib + Crizotinib; first compound 0.253 µM): 1.22 | relative viability (Apatinib + Crizotinib; first compound 0.8 µM): 1.11 | relative viability (Apatinib + Crizotinib; first compound 2.53 µM): 1.12 | relative viability (Apatinib + Crizotinib; first compound 8 µM): 1.07 | relative viability (Metformin + AZD7762; first compound 10 µM): 0.74 | relative viability (Metformin + AZD7762; first compound 31.62 µM): 0.836 | relative viability (Metformin + AZD7762; first compound 100 µM): 0.869 | relative viability (Metformin + AZD7762; first compound 316.23 µM): 0.745 | relative viability (Metformin + AZD7762; first compound 1000 µM): 0.913 | relative viability (Apatinib + Decitabine; first compound 0.08 µM): 0.476 | relative viability (Apatinib + Decitabine; first compound 0.253 µM): 0.494 | relative viability (Apatinib + Decitabine; first compound 0.8 µM): 0.461 | relative viability (Apatinib + Decitabine; first compound 2.53 µM): 0.518 | relative viability (Apatinib + Decitabine; first compound 8 µM): 0.508 | relative viability (Metformin + Palbociclib; first compound 10 µM): 0.334 | relative viability (Metformin + Palbociclib; first compound 31.62 µM): 0.389 | relative viability (Metformin + Palbociclib; first compound 100 µM): 0.386 | relative viability (Metformin + Palbociclib; first compound 316.23 µM): 0.354 | relative viability (Metformin + Palbociclib; first compound 1000 µM): 0.391

NCI-H1792
relative viability (Apatinib + Crizotinib; first compound 0.08 µM): 0.97 | relative viability (Apatinib + Crizotinib; first compound 0.253 µM): 0.988 | relative viability (Apatinib + Crizotinib; first compound 0.8 µM): 0.949 | relative viability (Apatinib + Crizotinib; first compound 2.53 µM): 0.96 | relative viability (Apatinib + Crizotinib; first compound 8 µM): 0.832 | relative viability (Metformin + AZD7762; first compound 10 µM): 0.598 | relative viability (Metformin + AZD7762; first compound 31.62 µM): 0.667 | relative viability (Metformin + AZD7762; first compound 100 µM): 0.539 | relative viability (Metformin + AZD7762; first compound 316.23 µM): 0.56 | relative viability (Metformin + AZD7762; first compound 1000 µM): 0.796 | relative viability (Apatinib + Decitabine; first compound 0.08 µM): 0.596 | relative viability (Apatinib + Decitabine; first compound 0.253 µM): 0.55 | relative viability (Apatinib + Decitabine; first compound 0.8 µM): 0.544 | relative viability (Apatinib + Decitabine; first compound 2.53 µM): 0.591 | relative viability (Apatinib + Decitabine; first compound 8 µM): 0.609 | relative viability (Metformin + Palbociclib; first compound 31.62 µM): 0.663 | relative viability (Metformin + Palbociclib; first compound 100 µM): 0.817 | relative viability (Metformin + Palbociclib; first compound 316.23 µM): 0.698 | relative viability (Metformin + Palbociclib; first compound 1000 µM): 0.238

SW 1573
relative viability (Apatinib + Crizotinib; first compound 0.08 µM): 0.946 | relative viability (Apatinib + Crizotinib; first compound 0.253 µM): 0.867 | relative viability (Apatinib + Crizotinib; first compound 0.8 µM): 0.748 | relative viability (Apatinib + Crizotinib; first compound 2.53 µM): 0.74 | relative viability (Apatinib + Crizotinib; first compound 8 µM): 0.58 | relative viability (Apatinib + Decitabine; first compound 0.08 µM): 0.77 | relative viability (Apatinib + Decitabine; first compound 0.253 µM): 0.615 | relative viability (Apatinib + Decitabine; first compound 0.8 µM): 0.593 | relative viability (Apatinib + Decitabine; first compound 2.53 µM): 0.513 | relative viability (Apatinib + Decitabine; first compound 8 µM): 0.603 | relative viability (Metformin + Palbociclib; first compound 10 µM): 0.378 | relative viability (Metformin + Palbociclib; first compound 31.62 µM): 0.364 | relative viability (Metformin + Palbociclib; first compound 100 µM): 0.321 | relative viability (Metformin + Palbociclib; first compound 316.23 µM): 0.252 | relative viability (Metformin + Palbociclib; first compound 1000 µM): 0.264

HCC-827
relative viability (Apatinib + Crizotinib; first compound 0.08 µM): 0.969 | relative viability (Apatinib + Crizotinib; first compound 0.253 µM): 0.887 | relative viability (Apatinib + Crizotinib; first compound 0.8 µM): 0.767 | relative viability (Apatinib + Crizotinib; first compound 2.53 µM): 0.83 | relative viability (Apatinib + Crizotinib; first compound 8 µM): 0.575 | relative viability (Metformin + AZD7762; first compound 10 µM): 0.245 | relative viability (Metformin + AZD7762; first compound 31.62 µM): 0.174 | relative viability (Metformin + AZD7762; first compound 100 µM): 0.257 | relative viability (Metformin + AZD7762; first compound 316.23 µM): 0.217 | relative viability (Metformin + AZD7762; first compound 1000 µM): 0.36 | relative viability (Apatinib + Decitabine; first compound 0.08 µM): 0.345 | relative viability (Apatinib + Decitabine; first compound 0.253 µM): 0.335 | relative viability (Apatinib + Decitabine; first compound 0.8 µM): 0.363 | relative viability (Apatinib + Decitabine; first compound 2.53 µM): 0.322 | relative viability (Apatinib + Decitabine; first compound 8 µM): 0.327 | relative viability (Metformin + Palbociclib; first compound 10 µM): 0.452 | relative viability (Metformin + Palbociclib; first compound 31.62 µM): 0.501 | relative viability (Metformin + Palbociclib; first compound 100 µM): 0.481 | relative viability (Metformin + Palbociclib; first compound 316.23 µM): 0.469 | relative viability (Metformin + Palbociclib; first compound 1000 µM): 0.615

NCI-H358
relative viability (Apatinib + Crizotinib; first compound 0.08 µM): 0.682 | relative viability (Apatinib + Crizotinib; first compound 0.253 µM): 0.586 | relative viability (Apatinib + Crizotinib; first compound 0.8 µM): 0.525 | relative viability (Apatinib + Crizotinib; first compound 2.53 µM): 0.54 | relative viability (Apatinib + Crizotinib; first compound 8 µM): 0.43 | relative viability (Metformin + AZD7762; first compound 10 µM): 0.619 | relative viability (Metformin + AZD7762; first compound 31.62 µM): 0.449 | relative viability (Metformin + AZD7762; first compound 100 µM): 0.461 | relative viability (Metformin + AZD7762; first compound 316.23 µM): 0.519 | relative viability (Metformin + AZD7762; first compound 1000 µM): 0.532 | relative viability (Apatinib + Decitabine; first compound 0.08 µM): 0.225 | relative viability (Apatinib + Decitabine; first compound 0.253 µM): 0.219 | relative viability (Apatinib + Decitabine; first compound 0.8 µM): 0.24 | relative viability (Apatinib + Decitabine; first compound 2.53 µM): 0.218 | relative viability (Apatinib + Decitabine; first compound 8 µM): 0.316 | relative viability (Metformin + Palbociclib; first compound 10 µM): 0.114 | relative viability (Metformin + Palbociclib; first compound 31.62 µM): 0.125 | relative viability (Metformin + Palbociclib; first compound 100 µM): 0.122 | relative viability (Metformin + Palbociclib; first compound 316.23 µM): 0.138 | relative viability (Metformin + Palbociclib; first compound 1000 µM): 0.141
